Results on 18 compounds are retold here after patent US4798892A, “2-hydroxypropylamine heteroaryl ester derivatives” (priority 1986, dated 1989).

The subject of series [1] is beta adrenergic receptor (heart rate response to isoproterenol). In words: Duration and potency of beta-blocking action in vivo, 3-hour infusion in pentobarbital-anesthetized dogs. The settings on record: for % Inhibition / Time for 50% Rec. / Time for 80% Rec.: Table IV, dose 2.4 / 22.0 ug/kg/min.; for Potency / % I (Percent inhibition of heart rate response to isoproterenol) / Recovery Time 50% / Recovery Time 80%: Table II; for Potency: infusion rate adjusted so isoproterenol inhibition averaged about 50% at end of 3-hour infusion; for % I (Percent inhibition of heart rate response to isoproterenol): isoproterenol 0.5 μg/kg bolus, 3-hour infusion; for Recovery Time 50% / Recovery Time 80%: after termination of 3-hour infusion. Also on record: species or system dog. Here is the method:
The duration of β-blockade was determined in vivo using pentobarbital-anesthetized dogs instrumented for measurement of heart rate using a Beckman cardiotachometer triggered electronically by a phasic aortic blood pressure signal. Both vagus nerves were severed in the cervical region and the animals were mechanically ventilated. The experimental design used employed a 3-hour infusion of test compound. Bolus doses of isoproterenol (0.5 μg/kg) were used to assess the degree of β-blockade and recovery from β-blockade after […] of the infusion. The doses were spaced at 10-minute intervals and were given before, during and following the infusion of test compounds. The infusion rate was adjusted so that at the end of the 3-hour infusion period the degree of isoproterenol inhibition averaged about 50% of control. Following termination of blocker infusion, percent recovery from β-blockade was computed and the time associated with 80% recovery estimated.

Series [2] has as its target T1, beta adrenergic receptor (guinea pig right atria) (Cavia porcellus, UniProt H0W3H1).
T1 construct: guinea pig right atria and guinea pig tracheal strips mounted in a tissue bath; from tissue; host or cells: guinea pig right atria, spontaneously beating
Kind of series: Beta-blocking activity in vitro, guinea pig right atria (blockade of isoproterenol rate response).

Series [3] is described as follows: Half-lives of beta blockers in dog whole blood (procedure D). Type of series: in vitro ADME. The note with it: 37° C., read-out: T1/2 dog blood. Here is the method:
(§1) The rate of disappearance of a compound is expressed as the half-life (T1/2), which is the time period in which one half of the initial amount of compound tested disappears. In each experiment, 1 ml of a solution containing 50 μg of the test compound was added to 1 ml of whole blood or 1 ml of a 33% (w/v) liver homogenate. The samples were incubated in a Dubnoff shaking metabolic incubator for 2.5, 5.0, 10.0, 20.0, 30.0 and 60.0 minutes at 37° C. At the designated time periods, the test mixtures were removed from the incubator and transferred to a 0° C. ice bath. Acetonitrile (2 ml) was immediately added and the mixtures were mixed to stop enzymatic hydrolysis. Zero time samples were prepared by adding 2 ml of acetonitrile to denature the proteins prior to addition of the test compounds. After centrifugation to sediment denatured proteins, 2 ml of the supernatant was removed and analyzed by high pressure liquid chromatography, using a mobile phase of 60% acetonitrile/40% 0.05 m sodium phosphate buffer (pH 6.6), a U.V. detector and Waters u Bondapak Phenyl column. The half life of each test compound was determined graphically by plotting the decrease in concentrations as a function of time.

The nature of series [4]: Enzymatic hydrolysis of beta blockers by dog aqueous humor (procedure C). The note with it: for remaining at 1 h / remaining at 2 h: 37° C.; for remaining at 1 h: read-out: Percent drug remaining, dog aqueous humor, 1 HR; for remaining at 2 h: read-out: Percent drug remaining, dog aqueous humor, 2 HR; for half-life: approximate value determined by procedure C, read-out: T1/2 dog aqueous humor. Type of series: in vitro ADME. Here is the method: (§2) Chemicals--Acetonitrile was "HPLC" grade. Distilled water was used to dissolve the compounds and 0.01N HCl was used to dissolve compounds requiring an acidic pH for dissolution.
(§3) Enzyme Source--Fresh aqueous humor was collected from eyes of dogs using a 23-gauge needle while fresh dog blood was collected into heparinized Vacutainer tubes. Fresh liver was homogenized in 0.9% NaCl using a Potter-Elvehjem Teflon pestle and glass homogenizer making a 25% (W/V) homogenate.
(§4) Incubation Condition--A 0.5 ml aliquot of dog aqueous humor, blood or liver homogenate was incubated with 12.5 μg (0.5 ml) of beta blocker in a Dubnoff shaking metabolic incubator at 37° C. for 60 and 120 min. Denatured tissue controls were prepared by adding 2.0 ml of acetonitrile into 0.5 ml of aqueous humor, blood or liver homogenate to destroy esterase activities prior to addition of the beta blockers. The controls were then incubated at 37° C. for 120 min. After 60 and 120 min, the incubations were terminated by addition of 2 ml of acetonitrile and immediately mixed by a Vortex® to stop esterase activities.
(§5) Sample Processing and Data Analyses--All samples were centrifuged at 4000 RPM for 10 min to sediment denatured proteins. The resultant supernatants were transferred to WISP® vials and analyzed using an HPLC assay developed for beta blockers. The hydrolysis of beta blockers by aqueous humor, blood and liver homogenate was determined by disappearance of the compounds. The extent of enzymatic hydrolysis by each tissue was determined by comparing the amount of each compound (absolute peak area) recovered at each time point to the amount of each compound (absolute peak area) in denatured tissue control and aqueous control samples. The results of these experiments are shown in Tabe III.

Series [5] is described as follows: Half-lives of beta blockers in dog liver homogenate (procedure D). Type of series: in vitro ADME. The settings on record: 33% (w/v) homogenate, 37° C., read-out: T1/2 dog liver homogenate. Here is the method:
as §1

A short description of series [6]: Enzymatic hydrolysis of beta blockers by dog blood (procedure C). Type of series: in vitro ADME. The note with it: dog, blood, 37° C.; for remaining at 1 h: read-out: Percent drug remaining, dog blood, 1 HR; for remaining at 2 h: read-out: Percent drug remaining, dog blood, 2 HR. Here is the method: as §2, §3, §4, §5
Series [7] in a line: Enzymatic hydrolysis of beta blockers by dog liver homogenate (procedure C). The note with it: dog, liver homogenate, 37° C.; for remaining at 1 h: read-out: Percent drug remaining, dog liver homogenate, 1 HR; for remaining at 2 h: read-out: Percent drug remaining, dog liver homogenate, 2 HR. Type of series: in vitro ADME. Here is the method:
as §2, §3, §4, §5

[8] abbreviates: Table I, guinea pig right atria, isoproterenol agonist, 60-minute incubation, 37° C., read-out: PA2 Rt. Atria (converted).

Values joined by “and” are separate entries in the source; they are usually repeats but may differ in a detail not shown here. Identical values can stand only once. Counter-ions that a name gives are not always drawn. Like-named read-outs stand apart in the source and are kept apart here.

T1 sequence (H0W3H1 1-470): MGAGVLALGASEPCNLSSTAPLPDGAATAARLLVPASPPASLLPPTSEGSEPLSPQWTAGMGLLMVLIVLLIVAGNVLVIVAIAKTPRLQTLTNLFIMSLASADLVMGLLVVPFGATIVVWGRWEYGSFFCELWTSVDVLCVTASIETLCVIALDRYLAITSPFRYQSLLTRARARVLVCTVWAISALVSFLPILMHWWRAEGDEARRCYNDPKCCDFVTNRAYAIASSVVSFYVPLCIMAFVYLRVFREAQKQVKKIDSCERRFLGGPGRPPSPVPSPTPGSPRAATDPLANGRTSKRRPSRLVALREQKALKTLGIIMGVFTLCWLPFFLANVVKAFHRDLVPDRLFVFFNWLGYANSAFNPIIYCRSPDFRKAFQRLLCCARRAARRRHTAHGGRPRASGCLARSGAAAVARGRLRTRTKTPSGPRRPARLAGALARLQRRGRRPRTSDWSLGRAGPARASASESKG

For `CC(C)(CNC(=O)N1CCOCC1)NCC(O)COC(=O)c1ccco1` (stereo not shown), in series [1], the % Inhibition – broadly, the percentage by which the read-out fell short of the control – came to 40%; the “Time for 50% Rec.” value came to 9 min; the “Time for 80% Rec.” value was determined as 30 min. For the same compound, the “pA2 (atria)” value in series [2] (Table IV) is 7.6.
Consider `CC(C)(CNC(=O)N1CCCCC1)NCC(O)COC(=O)c1ccco1` (stereo not shown), for which, in series [1], the “% Inhibition” value is 59%, the “Time for 50% Rec.” value was 5 min and the “Time for 80% Rec.” value was determined as 17 min. The Kb in series [2] (Table IV, read-out: pA2 (atria) (converted)) is 100 nM.
With `CC(C)NC[C@H](O)COc1cccc2ccccc12` (racemic) [Propanolol, reference compound], in series [1], the Potency was determined as 0.2 mg/kg/180 min and the “% I (Percent inhibition of heart rate response to isoproterenol)” value is on record as 67 ± 6%.
Consider `CC(C)C(=O)NCCNCC(O)COC(=O)c1ccccc1F` (stereo not shown) [Example I, 3-[[2-(Isopropylcarbonylamino)]ethyl]amino-2-hydroxypropyl 2-Fluorobenzoate Hydrochloride], for which the Kb in series [2] (setting [8]) is 794 nM.
On to `CC(C)C(=O)NCC(C)(C)NCC(O)COC(=O)c1ccccc1F` (stereo not shown) [Example V, 3-[1,1-Dimethyl-2-(isopropylcarbonylamino)]ethylamino-2-hydroxypropyl 2-Fluorobenzoate Oxalate Monohydrate], for which the half-life in series [3] amounted to 20 min. Further, in series [4], the share remaining (commonly the share of the starting amount still present when the sample was taken) at 1 h was found to be 75%, the amount remaining at 2 h came to 49% and the half-life is roughly 120 min. Besides, in series [1] (Table II footnote c), the “experiments did not recover to 80% within 60 min” value is reported as 2/6. Moreover, in series [1], the “Recovery Time 50%” value turned out to be 10 ± 2 min, the “Recovery Time 80%” value came to 22 ± 6 min, the Potency is 0.6 mg/kg/180 min and the “% I (Percent inhibition of heart rate response to isoproterenol)” value is given as 62 ± 5%. In addition, in series [5], the half-life is 3.5 min. The Kb in series [2] (setting [8]) was 158 nM. Moreover, in series [6], the share remaining at 1 h is 12% and the fraction remaining at 2 h was 8%. In series [7], the fraction remaining at 1 h is 0% and the share remaining at 2 h came out at 0%.
As for `CC(C)(CNC(=O)C1CCCCC1)NCC(O)COC(=O)c1ccccc1F` (stereo not shown) [Example VI, 3-[1,1-Dimethyl-2-(cyclohexylcarbonylamino)]ethylamino-2-hydroxypropyl 2-Fluorobenzoate Oxalate], in series [1], the “Recovery Time 50%” value turned out to be 8 ± 3 min, the “Recovery Time 80%” value came to 12 ± 3 min, the Potency was determined as 1.4 mg/kg/180 min and the “% I (Percent inhibition of heart rate response to isoproterenol)” value was 61%. The Kb in series [2] (setting [8]) was 20 nM.
`CNC(=O)NCC(C)(C)NCC(O)COC(=O)c1ccccc1F` (stereo not shown) [Example XI, 3-[1,1-Dimethyl-2-(methylaminocarbonylamino)]ethylamino-2-hydroxypropyl 2-Fluorobenzoate Hemioxalate]: in series [1], the “Recovery Time 80%” value is on record as greater than 60 min; the Potency is on record as 0.2 mg/kg/180 min; the “% I (Percent inhibition of heart rate response to isoproterenol)” value is 81% and 71%. Also, the Kb in series [2] (setting [8]) is 316 nM.
As to `CC(C)(CNC(=O)N1CCOCC1)NCC(O)COC(=O)c1ccc(O)c(O)c1` (stereo not shown) [Example XXXV, 3-[2-[1,1-Dimethyl-2-(1-morpholinocarbonylamino)]ethyl]amino-2-hydroxypropyl 3,4-Dihydroxybenzoate Oxalate Monohydrate], in series [2] (setting [8]), the Kb is 6.31 nM.
Turning to `CC(=O)NCC(C)NCC(O)COC(=O)c1ccccc1F` (stereo not shown) [III, 3-[1-methyl-2-(methylcarbonylamino)]ethylamino-2-hydroxypropyl 2-Fluorobenzoate], the Kb in series [2] (setting [8]) is greater than 501 nM.
On to `CC(=O)NCC(C)(C)NCC(O)COC(=O)c1ccccc1F` (stereo not shown) [IV, 3-[1,1-Dimethyl-2-(methylcarbonylamino)]ethylamino-2-hydroxypropyl 2-Fluorobenzoate], for which the half-life in series [3] is 7.5 min. Moreover, in series [4], the fraction remaining at 1 h was found to be 87%, the amount remaining at 2 h amounted to 52% and the half-life is roughly 120 min. Besides, in series [1], the “Recovery Time 50%” value was 7 min, the “Recovery Time 80%” value is reported as 35 min, the Potency amounted to 2.7 mg/kg/180 min and the “% I (Percent inhibition of heart rate response to isoproterenol)” value is 61%. Moreover, the Kb in series [2] (setting [8]) is 31.6 nM. In addition, in series [6], the share remaining at 1 h was 0% and the fraction remaining at 2 h was 0%. For the same compound, in series [7], the amount remaining at 1 h came to 39% and the fraction remaining at 2 h was 23%.
`CC(C)(CNS(=O)(=O)c1ccccc1)NCC(O)COC(=O)c1ccccc1F` (stereo not shown) [VIII, 3-[1,1-Dimethyl-2-(phenylsulfonylamino)]ethylamino-2-hydroxypropyl 2-Fluorobenzoate Oxalate]: the half-life in series [3] was found to be 15 min. Also, in series [1], the “% I (Percent inhibition of heart rate response to isoproterenol)” value was 43% and 55%. The Kb in series [2] (setting [8]) is 100 nM. The amount remaining at 1 h in series [6] and in series [7] was 0% throughout. The share remaining at 2 h in series [6] and in series [7] was 0% in each case.
As for `O=C(Cc1ccccc1)NCCNCC(O)COC(=O)c1ccccc1F` (stereo not shown) [XIII, 3-[2-(Benzylcarbonylamino)ethyl]amino-2-hydroxypropyl 2-Fluorobenzoate Hydrochloride], in series [2] (setting [8]), the Kb was greater than 1000 nM.
The same measure, in the same setting: the result for `COCCOC(=O)NCC(C)(C)NCC(O)COC(=O)c1ccccc1F` (stereo not shown) [XXXI, 3-[1,1-Dimethyl-2-[2-[(2-methoxy)ethoxycarbonylamino]]ethylamino-2-hydroxypropyl 2-Fluorobenzoate Oxalate] reads 20 nM.
In the case of `CN(C)S(=O)(=O)NCC(C)(C)NCC(O)COC(=O)c1ccccc1F` (stereo not shown) [XXXII, 3-[1,1-Dimethyl-2-(dimethylaminosulfonylamino)]ethylamino-2-hydroxypropyl 2-Fluorobenzoate Oxalate], the Kb in series [2] (setting [8]) is 39.8 nM.
As to `CC(C)(CNC(=O)N1CCOCC1)NCC(O)COC(=O)c1ccccc1` (stereo not shown) [XXXIII, 3-[1,1-Dimethyl-2-(1-morpholinocarbonylamino)]ethylamino-2-hydroxypropyl Benzoate Oxalate Hemihydrate], the Kb in series [2] (setting [8]) is 5.01 nM.
Still for that read-out and setting: the result for `CC(C)(CNC(=O)N1CCOCC1)NCC(O)COC(=O)c1ccccc1Cl` (stereo not shown) [XXXIV, 3-[1,1-Dimethyl-2-(1-morpholinocarbonylamino)]ethylamino-2-hydroxypropyl 2-Chlorobenzoate Oxalate] reads 12.6 nM; that for `CC(C)(CNC(=O)N1CCOCC1)NCC(O)COC(=O)c1ccc(O)cc1` (stereo not shown) [XXXVI, 3-[1,1-Dimethyl-2-(1-morpholinocarbonylamino)]ethylamino-2-hydroxypropyl 4-Hydroxbenzoate Oxalate], 7.94 nM.
Turning to `Cc1cc(O)ccc1C(=O)OCC(O)CNC(C)(C)CNC(=O)N1CCOCC1` (stereo not shown) [XXXVII, 3-[1,1-Dimethyl-2-(1-morpholinocarbonylamino)]ethylamino-2-hydroxypropyl 2-Methyl-4-hydroxybenzoate Oxalate], the “PA2 Rt. Atria” value in series [2] (Table I, guinea pig right atria, isoproterenol agonist, 60-minute incubation, 37° C.) is 8.2.
